Measured values published in article PMC8617031, “Development of a BCL-xL and BCL-2 dual degrader with improved anti-leukemic activity,” (Nature Communications, 2021).
Where “and” joins values, the source holds several entries; their conditions need not be identical. Equal entries are not always repeated.

Columns and labels:
[1] = target: T1, BCL-2/PROTAC/VCB ternary complex (Homo sapiens, UniProt P10415+P40337); assay: AlphaLISA ternary complex formation, cell-free, BCL-2; format: binding; conditions: raw plate signal, duplicate wells
T1 construct: pGEX-6P-1-VHL(54-213) (pDL2200) was constructed through Gibson assembly method; made in house; host or cells: bacterial culture (LB broth, IPTG induction)
Description: (§1) AlphaLISA assay was used to evaluate the in vitro ternary complex formation between target proteins (BCL-xL or BCL-2), PROTAC and E3 ligase (VCB complex). In each well, 5 nM His-tagged BCL-xL or BCL-2 proteins and 5 nM GST-VCB complex was incubated with varying concentrations of compounds in fourfold serial dilutions, to a final volume of 40 µl in a 96-well PCR plate. After incubation at room temperature for 30 min, 5 µl alpha glutathione-donor beads (Cat. No. 6765300, PerkinElmer) were added to each well (20 µg/ml final concentration) and incubated for another 15 min. Thereafter, 5 µL 6× His-acceptor beads were added to each well (20 µg/ml final concentration) and incubated for an additional 45 min at room temperature. Thereafter, 17 µl of each sample was transferred in adjacent wells of a 384-well proxy plate, and the plate was scanned using the Alpha program on Biotek’s Synergy Neo2 multimode plate reader. The data were expressed as average AlphaLISA signal and plotted against different concentrations of compounds using GraphPad Prism 9 software.

[2] = target: T2, BCL-xL/PROTAC/VHL-ELOC-ELOB (VCB) ternary complex (Homo sapiens, UniProt P40337+Q07817); assay: AlphaLISA ternary complex formation, cell-free, BCL-xL; format: binding; conditions: Fig. 3e raw Alpha reads
T2 construct: pGEX-6P-1-VHL(54-213) (pDL2200) was constructed through Gibson assembly method; made in house; host or cells: bacterial culture (LB broth, IPTG induction)
Description: as §1

[3] = compound 50000 nM, 2 technical replicates

T2 sequence (Q07817 1-212 limits assumed): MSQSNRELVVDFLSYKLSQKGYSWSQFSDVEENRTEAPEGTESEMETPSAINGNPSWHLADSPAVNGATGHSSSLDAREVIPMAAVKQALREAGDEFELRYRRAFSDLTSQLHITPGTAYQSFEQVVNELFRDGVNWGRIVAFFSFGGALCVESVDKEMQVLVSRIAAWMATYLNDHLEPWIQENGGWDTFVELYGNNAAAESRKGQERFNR
T2 sequence (P40337 54-213 limits assumed): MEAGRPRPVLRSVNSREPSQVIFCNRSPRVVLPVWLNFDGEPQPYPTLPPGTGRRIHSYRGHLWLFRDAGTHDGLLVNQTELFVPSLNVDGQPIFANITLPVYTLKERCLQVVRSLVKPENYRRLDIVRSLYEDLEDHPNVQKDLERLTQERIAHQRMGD
T2 sequence (Q15369 17-112 partner limits assumed): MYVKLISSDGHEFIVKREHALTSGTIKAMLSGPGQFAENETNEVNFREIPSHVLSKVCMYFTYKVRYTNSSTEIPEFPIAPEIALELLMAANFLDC
T2 sequence (Q15370 whole entry partner): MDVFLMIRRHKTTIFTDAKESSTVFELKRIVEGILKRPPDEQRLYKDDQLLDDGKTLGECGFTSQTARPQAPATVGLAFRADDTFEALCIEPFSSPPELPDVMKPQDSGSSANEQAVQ
T1 sequence (P10415 1-211 limits assumed): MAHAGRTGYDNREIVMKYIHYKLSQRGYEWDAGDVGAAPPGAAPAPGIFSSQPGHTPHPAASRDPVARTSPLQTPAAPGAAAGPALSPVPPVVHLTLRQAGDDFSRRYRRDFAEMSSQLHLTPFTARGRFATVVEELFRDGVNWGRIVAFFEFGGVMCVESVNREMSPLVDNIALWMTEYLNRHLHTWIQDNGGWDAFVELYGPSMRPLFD
T1 sequence (P40337 54-213 limits assumed): as the sequence (P40337 54-213 limits assumed) above
T1 sequence (Q15369 17-112 partner limits assumed): as the sequence (Q15369 17-112 partner limits assumed) above
T1 sequence (Q15370 whole entry partner): as the sequence (Q15370 whole entry partner) above

Row | Alpha (Alpha Endpoint read, Bcl-2 ternary complex formation) ([1]; Conc. 0.0762939 nM) | Alpha (Alpha Endpoint read, Bcl-2 ternary complex formation) ([1]; Conc. 0.305176 nM) | Alpha (Alpha Endpoint read, Bcl-2 ternary complex formation) ([1]; Conc. 1.2207 nM) | Alpha (Alpha Endpoint read, Bcl-2 ternary complex formation) ([1]; Conc. 4.88281 nM) | Alpha (Alpha Endpoint read, Bcl-2 ternary complex formation) ([1]; Conc. 19.5312 nM) | Alpha (Alpha Endpoint read, Bcl-2 ternary complex formation) ([1]; Conc. 78.125 nM) | Alpha (Alpha Endpoint read, Bcl-2 ternary complex formation) ([1]; Conc. 312.5 nM) | Alpha (Alpha Endpoint read, Bcl-2 ternary complex formation) ([1]; Conc. 1250 nM) | Alpha (Alpha Endpoint read, Bcl-2 ternary complex formation) ([1]; Conc. 5000 nM) | Alpha (Alpha Endpoint read, Bcl-2 ternary complex formation) ([1]; Conc. 20000 nM) | AlphaLISA signal, BCL-xL/PROTAC/VCB ([2]; compound 0.19 nM) | AlphaLISA signal, BCL-xL/PROTAC/VCB ([2]; compound 3.05 nM) | AlphaLISA signal, BCL-xL/PROTAC/VCB ([2]; compound 12.21 nM) | AlphaLISA signal, BCL-xL/PROTAC/VCB ([2]; compound 48.83 nM) | AlphaLISA signal, BCL-xL/PROTAC/VCB ([2]; compound 195.31 nM) | AlphaLISA signal, BCL-xL/PROTAC/VCB ([2]; compound 781.25 nM) | AlphaLISA signal, BCL-xL/PROTAC/VCB ([2]; compound 3125 nM) | AlphaLISA signal, BCL-xL/PROTAC/VCB ([2]; compound 12500 nM) | AlphaLISA signal, BCL-xL/PROTAC/VCB [2, 3] | AlphaLISA signal, BCL-xL/PROTAC/VCB ([2]; compound 0.76 nM) | Structure (SMILES)
1 | 50534 and 53139 | 145058 and 154080 | 205372 and 217088 | 773602 and 780039 | 1990534 and 2015902 | 2343633 and 2509831 | 1692897 and 1765154 | 434318 and 434578 | 40362 and 44856 | 14264 and 11638 | 27453 and 33756 | 365306 and 327240 | 971358 and 937064 | 1567841 and 1437893 | 1256006 and 1243530 | 553159 and 551116 | 187859 and 162857 | 42241 and 44787 | 28218 and 24731 |  | Cc1ncsc1-c1ccc([C@H](C)NC(=O)[C@@H]2C[C@@H](O)CN2C(=O)[C@@H](NC(=O)CCCCCCC(=O)N2CCN(C[C@@]3(C)CCC(c4ccc(Cl)cc4)=C(CN4CCN(c5ccc(C(=O)NS(=O)(=O)c6ccc(N[C@H](CCN7CCOCC7)CSc7ccccc7)c(S(=O)(=O)C(F)(F)F)c6)cc5)CC4)C3)CC2)C(C)(C)C)cc1 [753a]
2 | 13075 and 14039 | 25282 and 13828 | 26631 and 14952 | 23864 and 13192 |  | 25354 and 12957 |  | 25045 and 14016 |  | 20320 and 11437 | 12691 and 9324 | 28316 and 16721 | 27882 and 17689 |  | 22883 and 13939 | 12216 and 14015 | 19424 and 16133 | 17056 and 15505 | 14548 and 12360 | 14711 and 17995 | CC1(C)CCC(c2ccc(Cl)cc2)=C(CN2CCN(c3ccc(C(=O)NS(=O)(=O)c4ccc(N[C@H](CCN5CCOCC5)CSc5ccccc5)c(S(=O)(=O)C(F)(F)F)c4)cc3)CC2)C1 [ABT263, navitoclax]
